Experimental findings from patent US10889812B2, “Short non-coding protein regulatory RNAs (sprRNAs) and methods of use” (University of Maryland, Baltimore, priority 2014, dated 2021) are described below.

A word on the IC50: it is the point on the concentration scale where inhibition reaches its midpoint. A higher IC50 goes with lower potency.

Assay [1] relates to H1437. The assay can be described thus: MTT assay, IC50 of CDDP in NSCLC cell lines. In kind it is cell-based, Human. Here is the method: (§1) Cell viability and cell growth curve assay were determined by MTT assay and trypan blue exclusion assay, respectively as described previously (Kirino, Y. & Mourelatos, Z. Mouse Piwi-interacting RNAs are 2′-O-methylated at their 3′ termini Nat Struct Mol Biol. 14, 347-348 (2007)). BrieflySpecifically, MTT (5 mg/ml) was added into cells and incubated at culture condition for 3 hours, removed the medium carefully and dissolved formazan in DMSO, assay was used to assess the surviving cells and OD values were measured using Microplate Reader Manager (Bio Rad) at wavelengths of 570/690 nm. For trypan blue exclusion assay, cells were washed in PBS for three times, and dyed in 0.4% tyrpan blue solution. Unstained viable cells were counted in hemocytometer chamber under microscope. Each experiment was performed three times independently.
(§2) To determine if piRNA-Ls play a role in chemo-sensitivity, we first selected 11 piRNA-Ls differentially expressed between NSCLC and HBE cells (Mei Y, Wang Y, Kumari P, et al. A piRNA-like small RNA interacts with and modulates p-ERM proteins in human somatic cells. Nat Commun 6, 7316. doi: 10.1038/ncomms8316 (2015)) and analyzed the relationship between the expression levels and the sensitivities to chemotherapeutic agents commonly used clinically for patients with NSCLC. We established doses of 50% inhibitory concentration (IC50) for CDDP, gemcitabine, and docetaxel in 4 SCC and 4 ADC cell lines based on 3-(4,5-dimethylthiazol-2-yl)-2,5-diphenyltetrazolium bromide (MTT) assay (Table 4). We then measured expression levels of the 11 selected piRNA-Ls using real-time RT-PCR before and 24 h after treatment with both IC50 (H) and IC25 (L) doses for each of the agents. […] Impact of gemcitabine and docetaxel in piR-L-138 expression was also determined in these NSCLC cell lines (FIG. 19). As CDDP is the backbone agent to treat patients with NSCLC, we selected CDDP as the representative agent to further determine the role of piR-L-138 in SCC cells' response to chemotherapy.
A general note: Tetrazolium dyes change colour on reduction, which living cells bring about.

The subject of assay [2] is H157. The assay can be described thus: MTT assay, IC50 of CDDP in NSCLC cell lines. In kind it is cell-based, Human. Here is the method:
as §1, §2

For assay [3], the system named is H1792. Briefly: MTT assay, IC50 of CDDP in NSCLC cell lines. The assay is classed as cell-based, Human. Here is the method:
as §1, §2

Assay [4] relates to H1944. Briefly: MTT assay, IC50 of CDDP in NSCLC cell lines. In kind it is cell-based, Human. Here is the method:
as §1, §2

The subject of assay [5] is H226. Briefly: MTT assay, IC50 of CDDP in NSCLC cell lines. The assay is classed as cell-based, Human. On the procedure: as §1, §2
Assay [6] deals with H522. The assay can be described thus: MTT assay, IC50 of CDDP in NSCLC cell lines. In kind it is cell-based, Human. On the procedure:
as §1, §2

For assay [7], the system named is H596. Briefly: MTT assay, IC50 of CDDP in NSCLC cell lines. The assay is classed as cell-based, Human. On the procedure: as §1, §2
Assay [8] concerns SKMES-1. The assay can be described thus: MTT assay, IC50 of CDDP in NSCLC cell lines. Particulars: SKMES-1, MTT assay. The assay is classed as cell-based, Human. On the procedure:
as §1, §2

Assay [9] relates to piR-L-138. The assay can be described thus: piR-L-138 expression by real-time RT-PCR after chemotherapeutic agent, SCC cell lines. The following applies: all SCC cell lines, 24 h after treatment. The assay is classed as cell-based, human.
Text: as §2
A general note: Quantitative PCR measures a nucleic acid by following its amplification.

The test system of assay [10] is piR-L-138. Briefly: piR-L-138 expression by real-time RT-PCR after chemotherapeutic agent, ADC cell lines. In kind it is cell-based, human. Particulars: 24 h after treatment.
Text: as §2

With `[NH2][Pt]([NH2])([Cl])[Cl]` [CDDP, cisplatin], the half-maximal inhibitory concentration (IC50) in assay [1] was 50 µM; in [2], 80 µM; in assay [3], 50 µM; in [4] it was 100 µM; in assay [5] it was 40 µM; in assay [6] it was 45 µM. In addition, the IC50 in assay [7] was found to be 30 µM; in assay [8], 10 µM. In addition, the piR-L-138 levels result in assay [9] is “consistent and substantial increase of piR-L-138 levels”. Besides, in assay [10], the piR-L-138 expression result is “no or much smaller increase of piR-L-138 expression”.
